Consider four compounds from article PMC11504387, “Synthesis and Biological Activity Assessment of 2-Styrylbenzothiazoles as Potential Multifunctional Therapeutic Agents” (Antioxidants, 2024).

One series concerns PMNL. The series is described as follows: ROS production in PMA-stimulated PMNL. The format is cell-based, human. To be noted: 10 µM, mean ± SD. As for the experimental part:
After 10 min at 37 °C, PMA (0.1 μM) was added. The fluorescence emission at 530 nm was measured after excitation at 485 nm in a thermally controlled (37 °C) NOVOstar microplate reader (BMG Lab technologies GmbH, Offenburg, Germany). […] ROS generation was induced by phorbol-12-myristate-13-acetate (PMA), a widely recognized agent for stimulating ROS production in neutrophils and enhancing endogenous superoxide formation. Diphenyleneiodonium (DPI, 10 µM), a NADPH oxidase inhibitor, served as a positive control. Through this assay, we could assess the potential interaction of our compounds with intracellular ROS production and their capacity to act as radical scavengers within a relevant cellular context. Furthermore, the outcomes provided additional insights into their inhibitory mechanism and helped to determine whether they act directly or non-specifically, as there is evidence that an impact on the ROS levels in PMNL could be translated to modulation of 5-LO activity in the cellular environment. […] With those data in hand, together with 5-LO inhibition assay outcomes, a direct inhibition of the enzyme stands as the best fitting option regarding the mechanism of action of compounds BZTst4 and BZTst6. […] This phenomenon was not further explored because such investigation was beyond the scope of this work.

Series [1] can be described thus: UV spectrophotometric analysis of compounds in solution. The note with it: at ʎmax, Lambert–Beer equation. The format is physicochemical. The procedure: The synthesized compounds were solubilised in DMSO and diluted in MeOH, and the absorbance of the 10 µg/mL solution was measured between 290–400 nm with a UV-Vis spectrophotometer (SHIMADZU UV-2600 240 V, 1 cm quartz cell at 1 nm intervals). The absorbance at wavelength λ is related to the transmittance T(λ) via the Equation (1): A(λ) = −Log[T(λ)](1) where T(λ) is the fraction of incident irradiance transmitted by the sample. […]
The molar extinction coefficient was calculated with the absorbance recorded at the ʎmax applying the Lambert–Beer equation.

Series [2] is described as follows: In vitro filtering parameters of O/W sunscreen formulation on PMMA plates. The note with it: 3% in O/W sunscreen formulation. As for the experimental part: Synthesized compounds were incorporated at 3% concentration in a suitable oil-in-water (O/W) emulsion for cosmetic use as sunscreen.
INCI: Aqua, Glycerin, Xanthan Gum, Phenoxyethanol (and) Ethylhexylglycerin, Tribehenin PEG-20 Esters, Cetearyl Alcohol, Dicaprylyl Carbonate, PPG 26 Buteth-26 (and) PEG 40 Hydrogenated Castor Oil, C12-15 Alkyl Benzoate, Sodium hydroxide (sol. 10%).
A protocol previously reported by us was adopted. Briefly, 32.5 mg of each compound formulation was spread on the rough surface of 5 × 5 cm^2 PMMA plates in the form of small drops of approximately equal mass, in triplicate. The plates were placed in the dark for 15–30 min to allow the formation of a sun-stabilised standard layer and then inserted into the instrument and measured at five different points on each plate (UV transmittance range 290–400 nm). The blank was a plate coated with 32.5 mg glycerine, chosen for its non-fluorescence and UV transparency. In addition, in vitro SPF, UVAPF and ʎc values were calculated according to Equations (2)–(4) above. To evaluate the booster effect of selected synthesized compounds, they were incorporated at 3% concentration in an oil-in-water (O/W) sunscreen formulation with fixed SPF and UVAPf values (30 and 10, respectively).
Aiming to create compounds with diverse biological activities, the synthesized 2-styrylbenzothiazoles were examined for potential applications in sunscreens. Each candidate was incorporated into a standard cosmetic formulation at a concentration of 3% and subjected to photoprotective efficacy testing using the Diffey–Robson method. The formulation comprised an oil-in-water (O/W) emulsion suitable for sunscreen use, with each benzothiazole derivative being heat-solubilized in the oil phase and then dispersed into the emulsion using a turbo emulsifier. The mixture was then cooled, and the emulsion was spread onto polymethylmethacrylate (PMMA) plates before recording the transmittance spectra. The SPF value, UVA protection factor value (UVAPF), the […], and the critical wavelength (λc) were determined from the transmittance spectra using SPF calculator software and are presented in Table 3. These parameters are essential for evaluating the efficacy of potential sunscreen products.

The nature of series [3]: Photostability of O/W emulsions under solar simulator. The format is physicochemical. The note with it: O/W emulsion on PMMA. As for the experimental part: Oil-in-water (O/W) emulsions containing individual filters were spread on PMMA sheet and irradiated with a solar simulator by applying different doses of UVA equivalent to an erythema effective radiant exposure of 100 J/m^2. Photostability was assessed by analysing the spectral transmittance, before and after irradiation, of the sunscreen thin film, measured before and after exposure from 290 to 400 nm. The residual percentages of SPF in vitro (%SPFeff.) and UVAPF (%UVAPFeff.) were calculated according to Equations (6) and (7), respectively. When the %SPFeff. and %UVAPFeff. are greater than or equal to 80, according to current regulations, a filter can be considered photostable [37].
To evaluate the effectiveness and safety profile of a sunscreen formulation, it is necessary to provide data on its photostability. Photodegradation data can be obtained by recording the pre- and post-irradiation transmittance spectra of PMMA plates with finger-coat formulations exposed to a dose of UVA capable of causing erythema. This method, established by Garoli et al., is used to determine photostability. The sun protection layer’s transmission in the range of 290–400 nm is recorded before and after exposure to sunlight, following the protocol.
The residual percentages of SPF in vitro (%SPFeff.) and UVAPf (%UVAPfeff.) were calculated using Equations (6) and (7) and are listed in Table 4. A filter can be classified as photostable if the %SPFeff. is greater than or equal to 80, according to regulatory standards. %SPFeff. = in vitro SPFafter/in vitro SPFbefore × 100(6) %UVAPfeff. = UVAPfafter/UVAPfbefore × 100(7) where SPFafter and SPFbefore are the SPF values calculated from the software after and before solar irradiation, and UVAPfafter and UVAPfbefore are the UVAPf values calculated from the software after and before solar irradiation.

Series [4] concerns the target T1, 5-LO in A23187-stimulated human PMNL (Homo sapiens, UniProt P09917).
T1 construct: Freshly isolated PMNL (1 × 10^6 cells/mL) in PBS buffer pH 7.4; endogenous in cells; host or cells: primary human PMNL (neutrophils) isolated from blood
T1 sequence (P09917 1-674): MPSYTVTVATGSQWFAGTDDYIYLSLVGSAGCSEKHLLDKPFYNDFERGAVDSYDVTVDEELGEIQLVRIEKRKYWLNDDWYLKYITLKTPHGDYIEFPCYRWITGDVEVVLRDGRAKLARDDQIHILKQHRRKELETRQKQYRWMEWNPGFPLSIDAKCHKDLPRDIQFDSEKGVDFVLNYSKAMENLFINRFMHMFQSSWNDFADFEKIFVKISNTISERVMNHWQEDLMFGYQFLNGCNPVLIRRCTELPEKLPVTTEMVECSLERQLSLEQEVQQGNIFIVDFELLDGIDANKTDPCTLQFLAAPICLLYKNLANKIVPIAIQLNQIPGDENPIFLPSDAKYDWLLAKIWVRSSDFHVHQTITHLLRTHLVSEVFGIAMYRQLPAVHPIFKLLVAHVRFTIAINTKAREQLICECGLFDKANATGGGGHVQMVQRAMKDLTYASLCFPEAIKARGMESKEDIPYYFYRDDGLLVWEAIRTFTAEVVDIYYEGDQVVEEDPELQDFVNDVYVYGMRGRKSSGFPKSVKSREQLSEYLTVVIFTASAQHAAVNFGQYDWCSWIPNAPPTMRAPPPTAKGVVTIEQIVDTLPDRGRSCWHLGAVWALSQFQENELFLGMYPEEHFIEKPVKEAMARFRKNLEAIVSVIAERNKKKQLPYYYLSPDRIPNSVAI
Briefly: 5-Lipoxygenase inhibition in a cell-based assay (PMNL). The note with it: PMNL; 3 µM; % relative to vehicle (DMSO); read-out: 5-LO Residual Activity (PMNL). As for the experimental part: Following blood density centrifugation and cell population separation, PMNL was recovered from the pellet after hypotonic lysis of erythrocytes. Freshly isolated PMNL (1 × 10^6 cells/mL) in PBS buffer pH 7.4 with glucose (1 mg/mL) and CaCl2 (1 mM) was pre-incubated with the test compounds for 10 min at 37 °C. Then, 5-lipoxygenase (5-LO) product formation was started by addition of 2.5 μM Ca^2+-ionophore A23187 plus 20 μM arachidonic acid. The reaction was stopped after 10 min at 37 °C with 1 mL of ice-cold methanol containing 200 ng PGB1 as internal standard. Major 5-LO products (LTB4, trans-LTB4, epi-trans-LTB4, and 5-HETE) were extracted by SPE using Sep-Pak C18 35 cc Vac Cartridges (Waters, Milford, MA, USA) and analysed by UPLC-MS/MS as described by Pein et al..

The next series deals with T2, Human recombinant 5-LO (Homo sapiens, UniProt P09917).
T2 construct: made in house
T2 sequence (P09917 1-674): T1 sequence (P09917 1-674)
The series is described as follows: 5-Lipoxygenase inhibition in a cell-free assay. It is filed as biochemical. The note with it: 3 µM; % relative to vehicle (DMSO); read-out: 5-LO Residual Activity (Cell-Free). As for the experimental part:
Human recombinant 5-LO was expressed and isolated as described before, and immediately used for activity assays after isolation. The 5-LO (0.5 µg, in 1 mL PBS pH 7.4 containing 1 mM EDTA) was pre-incubated with the test compounds for 10 min at 4 °C and pre-warmed for 30 s at 37 °C. 5-LO product formation was initiated by sequential addition of 1 mM CaCl2 and 20 μM arachidonic acid. After 10 min at 37 °C, the reaction was terminated by addition of 1 mL ice-cold methanol containing 200 ng PGB1 as internal standard. Formed 5-LO products (trans-LTB4, epi-trans-LTB4, and 5-HETE) were extracted using Sep-Pak C18 35 cc Vac Cartridges and analysed by UPLC-MS/MS as previously described.

Series [5] relates to human melanoma Colo38 cells. The series is described as follows: Cell growth inhibition assay, Colo38. The format is cell-based. To be noted: 24 h incubation; mean ± SD. As for the experimental part: Cell growth inhibition analyses were performed on human melanoma Colo38 cells and skin HaCat keratinocytes. Human melanoma Colo38 cells were kindly given by Dr. Patrizio Giacomini (Laboratory of Immunology, Regina Elena Institute, Rome, Italy). HaCat cells were obtained from Istituto Zooprofilattico Sperimentale della Lombardia e dell’Emilia-Romagna, Brescia, Italy. Cells were seeded at 40,000 cells/mL and 25,000 cells/mL, respectively. Colo38 cells were maintained in RPMI 1640, supplemented with 10% foetal bovine serum (FBS), penicillin (100 Units/mL), and streptomycin (100 µg/mL). HaCat cells were maintained in DMEM, supplemented with 10% fatal bovine serum (FBS), penicillin (100 Units/mL), streptomycin (100 µg/mL) and glutamine (2 mM); the incubation was performed at 37 °C in a 5% CO2 atmosphere. Compounds were dissolved in DMSO to obtain 50 mM stock solutions and diluted before cell treatment in MeOH. The tested compounds were added at serial dilutions to the cell cultures (from 0.1 to 100 µM) and incubated for 24 h further. Cells were then harvested, suspended in physiological solution, and counted with a Z2 Coulter Counter (Coulter Electronics, Hialeah, FL, USA). The number of cells/mL and the IC50 values were determined when untreated cells were in the log phase of cell growth. Samples of vehicles and untreated cells were included in each plate. Cisplatin was used as positive control for the HaCat cells, while N1-(4-arylidene)-1H-(2-OH-4-N(Et)2-phenyl)-[d]imidazole-2-carbohydrazide was used as positive control for the Colo38 cell line.

As a reminder, the IC50 is the concentration at which inhibition is half-maximal. Lower therefore signals inhibition by little substance.

On to `c1ccc2c(c1)[I+]c1ccccc1-2` [DPI, Diphenyleneiodonium, reference compound], for which the “ROS Production (% of Control)” value with PMNL is listed as 16.44 ± 2.14 % of control.
Turning to `O=S(=O)(O)c1ccc2[nH]c(-c3ccccc3)nc2c1` [PBSA, 2-Phenyl-1H-Benzimidazole-5-Sulphonic Acid, reference compound], the “Ɛ (molar extinction coefficient)” value in series [1] is recorded as 23,881.86 dm^3 mol^−1 cm^−1. Moreover, in series [2], the SPF was determined as 1.91, the UVA/UVB was 0.67, the UVAPF was 1.13 and the “ʎc (critical wavelength)” value came out at 357 nm. Also, the “%UVAPfeff.” value in series [3] (residual UVAPF after solar irradiation) is given as 100.00%. In addition, in series [3] (residual in vitro SPF after solar irradiation), the “%SPFeff.” value is given as 103.66%.
For the compound `CC(c1cc2ccccc2s1)N(O)C(N)=O` (centres unmarked) [Zileuton, zileuton, reference compound], the remaining activity at 3 µM in series [4] came to 31.3 ± 12.7%; on Human recombinant 5-LO, 28.6 ± 7.38%.
For the compound “N^1-(4-arylidene)-1H-(2-OH-4-N(Et)2-phenyl)-[d]imidazole-2-carbohydrazide [Cmp 13, reference compound]”, in series [5], 0.7 ± 0.06 µM corresponded to half-maximal inhibition (IC50).
